Tests used:
thromboxane A2 receptor = molecular target: T1, thromboxane A2 receptor (Cavia porcellus, UniProt A0A286Y4I8); experiment: Thromboxane A2 antagonistic effect: inhibition of U-46619-induced platelet aggregation in guinea-pig platelet-rich plasma; format: cell-based, guinea-pigs; details: guinea-pig PRP, U-46619 2 μg/ml, 2 min at 37° C.; read-out: IC50 (50% inhibition against platelet aggregation)
T1 construct: platelet-rich plasma; endogenous in cells; host or cells: guinea-pig platelets in platelet-rich plasma
T1 sequence (A0A286Y4I8 1-347): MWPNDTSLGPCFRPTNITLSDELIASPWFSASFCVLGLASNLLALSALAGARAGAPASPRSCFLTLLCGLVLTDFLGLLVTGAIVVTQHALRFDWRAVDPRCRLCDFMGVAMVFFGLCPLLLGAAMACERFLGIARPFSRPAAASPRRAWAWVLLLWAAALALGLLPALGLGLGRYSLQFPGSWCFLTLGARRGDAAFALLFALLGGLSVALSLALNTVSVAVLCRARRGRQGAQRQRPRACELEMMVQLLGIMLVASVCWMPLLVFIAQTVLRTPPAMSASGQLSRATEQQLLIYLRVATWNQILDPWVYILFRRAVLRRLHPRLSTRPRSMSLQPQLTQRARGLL
Experimental: Blood was collected from the abdominal aorta of guinea-pigs (about 400 g wt.) into 1/10 volume of 3.8% sodium citrate, and then platelet-rich plasma (PRP: 6×10^5 cells/μl) was obtained by centrifugation. A cuvette was filled with PRP 190 μl and set in an aggregometer (Hema Tracer I; Niko Bioscience). Incubation was carried out for 2 min. at 37° C. after the addition of 1 μl of dimethyl sulfoxide solution of test compounds. To the PRP, 10 μl of U-46619 (Cayman), a thromboxane A2 /prostaglandin H2 receptor agonist and potent platelet aggregation inducer, was added at the final concentration of 2 μg/ml, and platelet aggregation was measured by an aggregometer.

leukotriene D4 = molecular target: T2, leukotriene D4 (Cavia porcellus, UniProt Q2NNR5); experiment: Leukotriene D4 antagonistic effect in isolated trachea (Schild method); design: species or system male Hartley guinea-pigs; details: isolated trachea, 30 min treatment, indomethacin 3×10^-6 M, Krebs 37° C.
T2 construct: tracheas were isolated from male Hartley guinea-pigs; from tissue; host or cells: isolated trachea of male Hartley guinea-pigs
T2 sequence (Q2NNR5 1-340): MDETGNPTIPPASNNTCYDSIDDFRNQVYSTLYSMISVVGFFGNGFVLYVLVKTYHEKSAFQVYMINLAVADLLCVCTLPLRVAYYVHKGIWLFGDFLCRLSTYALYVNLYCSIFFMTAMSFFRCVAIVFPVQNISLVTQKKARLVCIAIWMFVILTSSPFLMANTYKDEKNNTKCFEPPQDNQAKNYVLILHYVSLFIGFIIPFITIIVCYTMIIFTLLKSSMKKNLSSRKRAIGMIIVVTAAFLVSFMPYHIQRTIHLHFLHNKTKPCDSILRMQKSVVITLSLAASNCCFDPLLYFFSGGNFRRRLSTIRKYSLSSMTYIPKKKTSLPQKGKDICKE
Experimental: According to an ordinary method, tracheas were isolated from male Hartley guinea-pigs, and ring specimens of approximately […] length were prepared. These specimens were suspended isotonically in organ baths that contained Krebs solution at 37° C. under a resting tension of 0.5 g. After repeated contractions with acetylcholine (1×10^-6 M; Ovisot for injection, Daiichi Seiyaku), and the first concentration-response curves was obtained by cummulative applications of leukotriene D4 (ULTRA FINE) into the organ baths. After treatments with test compounds at adequate concentrations for 30 min, the second concentration-response curves were obtained in the same manner as first applications. pKB values were calculated using these two concentration-response curves according to the method of Schild [Pharmacological Review, Vol. 9, 242 (1957)]. Indomethacin (3×10^-6 M; Sigma) was added beforehand to the organ bath to eliminate possible affections by thromboxane A2 and prostaglandin produced by stimulus of leukotriene D4 [Japan J. Pharmacol., Vol. 60, 227 (1992)].

Row | SMILES | IC50 (thromboxane A2 receptor) [nM] | Kb (leukotriene D4) [nM]
1 | O=C(O)CCCc1ccc(C(Cc2ccccc2F)NS(=O)(=O)c2ccc(Cl)cc2)cc1 (centres unmarked) [Example 93, 4-[4-[1-(4-Chlorophenylsulfonylamino)-2-(2-fluorophenyl)ethyl]phenyl]butyric Acid] | 320 | 
2 | O=C(O)CCCc1ccc(C(Cc2ccccc2)NS(=O)(=O)c2ccc(F)cc2)cc1 (centres unmarked) [Example 88, 4-[4-[1-(4-Fluorophenylsulfonylamino)-2-phenylethyl]phenyl]butyric Acid] | 320 | 
3 | CCCCc1ccc(CCC(NS(=O)(=O)c2ccc(Cl)cc2)c2ccc(CCCC(=O)O)cc2)cc1 (centres unmarked) [Example 117, 4-[4-[3-(4-Butylphenyl)-1-(4-chlorophenylsulfonylamino)propyl]phenyl]butyric Acid] |  | 251
4 | O=C(O)CCCc1ccc(C(CC2CC3CCC2C3)NS(=O)(=O)c2ccc(Cl)cc2)cc1 (centres unmarked) [Example 85, 4-[4-[1-(4-Chlorophenylsulfonylamino)-2-(2-norbornyl)ethyl]phenyl]butyric Acid] | 400 | 158
5 | O=C(O)CCCc1ccc(C(NS(=O)(=O)c2ccc(Cl)cc2)C2CCCCCC2)cc1 (centres unmarked) [Example 75, 4-[4-[(4-Chlorophenylsulfonylamino)cycloheptylmethyl]phenyl]butyric Acid] | 320 | 398
6 | O=C(O)CCCc1ccc(C(Cc2cccc(F)c2)NS(=O)(=O)c2ccc(Cl)cc2)cc1 (centres unmarked) [Example 94, 4-[4-[1-(4-Chlorophenylsulfonylamino)-2-(3-fluorophenyl)ethyl]phenyl]butyric Acid] | 63 | 
7 | CC(C)(C)CC(NS(=O)(=O)c1ccc(Cl)cc1)c1ccc(CCCC(=O)O)cc1 (centres unmarked) [Example 72, 4-[4-[1-(4-Chlorophenylsulfonylamino)-3,3-dimethylbutyl]phenyl]butyric Acid] | 320 | 
8 | CCCCCCCC(NS(=O)(=O)c1ccc(Cl)cc1)c1ccc(CCCC(=O)O)cc1 (centres unmarked) [Example 100, 4-[4-[1-(4-Chlorophenylsulfonylamino)octyl]phenyl]butyric Acid] | 790 | 
9 | CCCCC[C@H]1CC[C@H](C(NS(=O)(=O)c2ccc(Cl)cc2)c2ccc(CCCC(=O)O)cc2)CC1 (relative stereo) [Example 77, trans-4-[4-[(4-Chlorophenylsulfonylamino)(4-pentylcyclohexyl)methyl]phenyl]butyric Acid] |  | 631
10 | Cc1ccc(S(=O)(=O)NC(Cc2ccccc2)c2ccc(CCCC(=O)O)cc2)cc1 (centres unmarked) [Example 90, 4-[4-[1-(p-Tolylsulfonylamino)-2-phenylethyl]phenyl]butyric Acid] | 320 | 
11 | O=C(O)CCCc1ccc(C(CCCCC2CCCCC2)NS(=O)(=O)c2ccc(Cl)cc2)cc1 (centres unmarked) [Example 82, 4-[4-[1-(4-Chlorophenylsulfonylamino)-5-cyclohexylpentyl]phenyl]butyric Acid] | 400 | 
12 | O=C(O)CCCc1ccc(C(Cc2ccc(F)cc2)NS(=O)(=O)c2ccc(Cl)cc2)cc1 (centres unmarked) [Example 95, 4-[4-[1-(4-Chlorophenylsulfonylamino)-2-(4-fluorophenyl)ethyl]phenyl]butyric Acid] | 160 | 501
13 | O=C(O)CCCc1ccc(C(CC2CCCC2)NS(=O)(=O)c2ccc(Cl)cc2)cc1 (centres unmarked) [Example 78, 4-[4-[1-(4-Chlorophenylsulfonylamino)-2-cyclopentylethyl]phenyl]butyric Acid] | 320 | 1000
14 | O=C(O)CCCc1ccc(C(CCCCc2ccccc2)NS(=O)(=O)c2ccc(Cl)cc2)cc1 (centres unmarked) [Example 115, 4-[4-[1-(4-Chlorophenylsulfonylamino)-5-phenylpentyl]phenyl]-butyric Acid] | 320 | 
15 | O=C(O)CCCc1ccc(C(CCCc2ccccc2)NS(=O)(=O)c2ccc(Cl)cc2)cc1 (centres unmarked) [Example 114, 4-[4-[1-(4-Chlorophenylsulfonylamino)-4-phenylbutyl]phenyl]butyric Acid] | 320 | 
16 | C[C@H]1CC[C@H](C(NS(=O)(=O)c2ccc(Cl)cc2)c2ccc(CCCC(=O)O)cc2)CC1 (relative stereo) [Example 76, trans-4-[4-[(4-Chlorophenylsulfonylamino)(4-methylcyclohexyl)methyl]phenyl]butyric Acid] |  | 200
17 | O=C(O)CCCCc1ccc(C(CC2CCCCC2)NS(=O)(=O)c2ccc(Cl)cc2)cc1 (centres unmarked) [Example 113, 5-[4-[1-(4-Chlorophenylsulfonylamino)-2-cyclohexylethyl]phenyl]valeric Acid] | 400 | 39.8
18 | O=C(O)CCCc1ccc(C(Cc2ccccc2)NS(=O)(=O)c2ccc(Br)cc2)cc1 (centres unmarked) [Example 89, 4-[4-[1-(4-Bromophenylsulfonylamino)-2-phenylethyl]phenyl]butyric Acid] | 32 | 
19 | O=C(O)CCc1ccc(C(Cc2ccccc2)NS(=O)(=O)c2ccc(Cl)cc2)cc1 (centres unmarked) [Example 86, 3-[4-[1-(4-Chlorophenylsulfonylamino)-2-phenylethyl]phenyl]propionic Acid] | 250 | 
20 | CCC(NS(=O)(=O)c1ccc(Cl)cc1)c1ccc(CCCC(=O)O)cc1 (centres unmarked) [Example 64, 4-[4-[1-(4-Chlorophenylsulfonylamino)propyl]phenyl]butyric Acid] | 160 | 
21 | O=C(O)CCCc1ccc(C(CC23CC4CC(CC(C4)C2)C3)NS(=O)(=O)c2ccc(Cl)cc2)cc1 (centres unmarked) [Example 84, 4-[4-[2-(1-Adamantyl)-1-(4-chlorophenylsulfonylamino)ethyl]phenyl]butyric Acid] |  | 200
22 | O=C(O)CCCc1ccc(C(Cc2ccccc2)NS(=O)(=O)c2ccccc2)cc1 (centres unmarked) [Example 87, 4-[4-[2-phenyl-1-(phenylsulfonylamino)ethyl]phenyl]butyric Acid] | 320 | 
23 | O=C(O)CCCc1ccc(C(CCCCCc2ccccc2)NS(=O)(=O)c2ccc(Cl)cc2)cc1 (centres unmarked) [Example 116, 4-[4-[1-(4-Chlorophenylsulfonylamino)-6-phenylhexyl]phenyl]butyric Acid] | 500 | 200
24 | CC(C)CC(NS(=O)(=O)c1ccc(Cl)cc1)c1ccc(CCCC(=O)O)cc1 (centres unmarked) [Example 70, 4-[4-[1-(4-Chlorophenylsulfonylamino)-3-methylbutyl]phenyl]butyric Acid] | 320 | 
25 | O=C(O)CCCCc1ccc(C(Cc2ccccc2)NS(=O)(=O)c2ccc(Cl)cc2)cc1 (centres unmarked) [Example 92, 5-[4-[1-(4-Chlorophenylsulfonylamino)-2-phenylethyl]phenyl]valeric Acid] | 320 | 
26 | COc1ccc(S(=O)(=O)NC(Cc2ccccc2)c2ccc(CCCC(=O)O)cc2)cc1 (centres unmarked) [Example 91, 4-[4-[1-(4-Methoxyphenylsulfonylamino)-2-phenylethyl]phenyl]butyric Acid] | 320 | 

Reference: patent US5597848A, “Benzenesulfonamide derivatives and use thereof” (Hokuriku Seiyaku Co., Ltd., priority 1992, dated 1997)
